# From paper PMC3589648, “2D- and 3D-QSAR studies of a series of benzopyranes and benzopyrano[3,4b][1,4]-oxazines as inhibitors of the multidrug transporter P-glycoprotein” (Journal of Computer-Aided Molecular Design, 2013)
# Like-named read-outs stand apart in the source and are kept apart here.
# Target: T1, P-glycoprotein (P-gp) (Homo sapiens, UniProt P08183)
# T1 construct: The resistant CEM/vcr1000 line was obtained by stepwise selection in vincristine containing medium; endogenous in cells; host or cells: CCRF-CEM vcr1000 (CEM/vcr1000), a human T-lymphoblast line made multidrug resistant by vincristine selection
# T1 sequence (P08183 whole entry): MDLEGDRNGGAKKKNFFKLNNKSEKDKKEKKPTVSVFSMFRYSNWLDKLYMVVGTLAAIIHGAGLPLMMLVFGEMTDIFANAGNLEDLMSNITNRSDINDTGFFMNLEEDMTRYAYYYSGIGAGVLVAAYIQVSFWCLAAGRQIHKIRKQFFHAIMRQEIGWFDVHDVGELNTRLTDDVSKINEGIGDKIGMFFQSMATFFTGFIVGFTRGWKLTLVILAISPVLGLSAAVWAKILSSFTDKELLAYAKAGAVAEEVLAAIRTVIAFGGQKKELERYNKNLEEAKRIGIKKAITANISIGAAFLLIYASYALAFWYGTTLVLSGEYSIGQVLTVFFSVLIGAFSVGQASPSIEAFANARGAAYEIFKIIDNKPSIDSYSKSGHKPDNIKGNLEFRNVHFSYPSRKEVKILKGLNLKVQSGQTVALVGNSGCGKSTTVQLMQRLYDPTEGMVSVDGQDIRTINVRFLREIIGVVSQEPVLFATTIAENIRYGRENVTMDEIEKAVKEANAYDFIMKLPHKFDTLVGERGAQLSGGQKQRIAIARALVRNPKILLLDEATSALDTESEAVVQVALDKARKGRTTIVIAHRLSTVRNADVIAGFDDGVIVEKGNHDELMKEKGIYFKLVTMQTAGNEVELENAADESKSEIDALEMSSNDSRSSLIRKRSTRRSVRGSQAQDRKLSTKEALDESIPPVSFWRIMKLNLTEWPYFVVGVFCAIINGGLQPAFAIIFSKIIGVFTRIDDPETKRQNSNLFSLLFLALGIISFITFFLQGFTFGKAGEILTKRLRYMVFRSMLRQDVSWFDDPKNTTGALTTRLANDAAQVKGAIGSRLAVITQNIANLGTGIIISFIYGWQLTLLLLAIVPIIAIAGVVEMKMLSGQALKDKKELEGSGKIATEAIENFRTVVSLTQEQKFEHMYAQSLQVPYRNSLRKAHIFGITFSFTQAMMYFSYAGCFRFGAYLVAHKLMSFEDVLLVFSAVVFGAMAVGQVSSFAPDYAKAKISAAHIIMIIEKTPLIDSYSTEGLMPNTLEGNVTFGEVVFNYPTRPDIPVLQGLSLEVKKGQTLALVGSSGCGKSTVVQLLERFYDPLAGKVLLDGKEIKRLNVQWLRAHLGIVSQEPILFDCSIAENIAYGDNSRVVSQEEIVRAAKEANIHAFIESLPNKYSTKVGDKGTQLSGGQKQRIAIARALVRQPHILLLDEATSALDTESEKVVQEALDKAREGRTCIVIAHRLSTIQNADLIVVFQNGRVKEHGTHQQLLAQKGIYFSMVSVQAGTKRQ
# Assay: Daunorubicin efflux inhibition in multidrug resistant CCRF-CEM vcr1000 cells
# Format: cell-based
# Conditions: for factor more active than corresponding unsubstituted analogs 6a and 6b: N-methylated L-valine analogues versus secondary amines
# Description: Biological activity of target compounds 5a–22b was assessed using the daunorubicin efflux protocol as described previously. Briefly, multidrug resistant CCRF-CEM vcr 1,000 cells were incubated with daunorubicin and the decrease in mean cellular fluorescence in dependence of time was measured in presence of various concentrations of the modulator. IC50 values were calculated from the concentration–response curve of efflux V max /K m versus concentration of the modulator. Thus, the effect of different modulators on the transport rate is measured in a direct functional assay. Values are given in Table 1 and are the mean of at least three independently performed experiments. Generally, inter experimental variation was below 20 %.
# The human T-lymphoblast cell line CCRF-CEM and the multidrug resistant CEM/vcr1000 cell line were provided by V. Gekeler (Byk Gulden, Konstanz, Germany). The resistant CEM/vcr1000 line was obtained by stepwise selection in vincristine containing medium. Cells were kept under standard culture conditions (RPMI1640 medium supplemented with 10% fetal calf serum). P-gp-expressing resistant cell line was cultured in presence of 1000 ng/mL vincristine. One week prior to the experiments cells were transferred into medium without selective agents or antibiotics. Briefly, cells were pelleted, the supernatant was removed by aspiration and cells were resuspended at a density of 1 x 10^6/ mL in PRMI1640 medium containing 3µmol/l daunomycin. Cell suspensions were incubated at 37°C for 30 min. After this time a steady state of daunorubicin accumulation was reached. Tubes were chilled on ice and cells were pelleted at 500 x g. Cells were washed once in RPMI1640 medium to remove extracellular daunorubicin. […] Generally, 8 serial dilutions were tested for each modulator. After 1, 2, 3 and 4 min aliquots of the incubation mixture were drawn and pipetted into 4 volumes of ice cold stop solution (RPMI1640 medium containing verapamil at a final concentration of 100 µM). Parental CCRF-CEM cells were used to correct for simple membrane diffusion, which was less than 3% of the efflux rates observed in resistant cells. Samples drawn at the respective time points were kept in an ice water bath and measured within one hour on a Becton Dickinson FACS Calibur (Becton Dickinson, Heidelberg, Germany) flow cytometer as described. Dose response curves were fitted to the data points using non-linear least squares and IC50 values were calculated as described by Chiba et al. […] A CV of below 20% was obtained in all determinations.
# [1] = SM Table 2, logarithm of the measured IC50 (μM) of Table 1
# [2] = inhibition of P-gp mediated daunorubicin efflux, CCRF-CEM vcr1000 cells, mean of at least three experiments, read-out: IC50 μM ± SD
# [3] = SM Table 2, logarithm of the measured IC50 (μM) of Table 1, read-out: Exp. LogIC50 (converted)
Structure (SMILES),Exp. LogIC50 [1],IC50 [2] [µM],factor more active than corresponding unsubstituted analogs 6a and 6b,IC50 [3] [µM],"more active than diastereomer 14b (ratio of P-gp inhibitory potency (IC50), 14a versus 14b)","factor less active than diastereomeric 4aR,10bS analogue 12b (ratio of P-gp inhibitory potency (IC50), 12a versus 12b)"
CC(C)[C@@H](C(=O)OC(C)(C)C)N(C)[C@@H]1c2cc(C#N)ccc2OC(C)(C)[C@H]1O [9a],0.02,0.96 ± 0.06,2,,,
CC(C)[C@H](N[C@H]1c2cc(C#N)ccc2OC(C)(C)[C@@H]1O)C(=O)OC(C)(C)C [6b],-0.43,2.7 ± 0.02,,,,
CC(C)[C@H](C(=O)OC(C)(C)C)N(C)[C@@H]1c2cc(C#N)ccc2OC(C)(C)[C@H]1O [11a],-0.004,1.01 ± 0.02,,,,
CC(C)[C@@H](C(=O)OC(C)(C)C)N(C)[C@H]1c2cc(C#N)ccc2OC(C)(C)[C@@H]1O [9b],-0.13,1.35 ± 0.003,2,,,
CC(C)[C@@H](CO)N[C@H]1c2cc(C#N)ccc2OC(C)(C)[C@@H]1O [19b],-2.01,102.6 ± 0.15,,,,
CC(C)[C@@H](CO)N(C)[C@H]1c2cc(C#N)ccc2OC(C)(C)[C@@H]1O [20b],-0.83,6.84 ± 0.15,,,,
C[C@@H](C(=O)OC(C)(C)C)N(C)[C@H]1c2cc(C#N)ccc2OC(C)(C)[C@@H]1O [8b],-0.57,3.72 ± 0.03,,,,
CC(C)[C@@H](N[C@H]1c2cc(C#N)ccc2OC(C)(C)[C@@H]1O)C(=O)OC(C)(C)C [10b],-0.13,1.34 ± 0.08,,,,
C[C@H](N[C@H]1c2cc(C#N)ccc2OC(C)(C)[C@@H]1O)C(=O)OC(C)(C)C [5b],-1.16,14.55 ± 0.05,,,,
CC(C)(C)OC(=O)[C@H](Cc1ccccc1)N[C@@H]1c2cc(C#N)ccc2OC(C)(C)[C@H]1O [7a],0.26,0.55 ± 0.02,,,,
CC(C)[C@H](C(=O)OC(C)(C)C)N(C)[C@H]1c2cc(C#N)ccc2OC(C)(C)[C@@H]1O [11b],0.005,1 ± 0.05,,,,
CC1(C)Oc2ccc(C#N)cc2[C@@H]2N[C@@H](Cc3ccccc3)C(=O)O[C@H]21 [14b],-2.41,259.78 ± 0.06,,,,
C[C@H](N[C@@H]1c2cc(C#N)ccc2OC(C)(C)[C@H]1O)C(=O)OC(C)(C)C [5a],-1.47,29.85 ± 0.01,,,,
CC(C)[C@@H](CCl)N(C)[C@H]1c2cc(C#N)ccc2OC(C)(C)[C@@H]1O [22b],-1.65,45.17 ± 0.05,,,,
CC(C)(C)OC(=O)[C@H](Cc1ccccc1)N[C@H]1c2cc(C#N)ccc2OC(C)(C)[C@@H]1O [7b],0.11,0.77 ± 0.04,,,,
CC(C)[C@H](N[C@@H]1c2cc(C#N)ccc2OC(C)(C)[C@H]1O)C(=O)OC(C)(C)C [6a],-0.38,2.4 ± 0.03,,,,
C[C@@H](C(=O)OC(C)(C)C)N(C)[C@@H]1c2cc(C#N)ccc2OC(C)(C)[C@H]1O [8a],-0.60,3.96 ± 0.06,,,,
CC(C)[C@@H](CCl)N(C)[C@@H]1c2cc(C#N)ccc2OC(C)(C)[C@H]1O [22a],-1.55,35.22 ± 0.02,,,,
CC(C)[C@@H](CO)N(C)[C@@H]1c2cc(C#N)ccc2OC(C)(C)[C@H]1O [20a],-0.74,5.46 ± 0.24,,,,
CC(C)[C@@H](N[C@@H]1c2cc(C#N)ccc2OC(C)(C)[C@H]1O)C(=O)OC(C)(C)C [10a],-0.66,4.62 ± 0.31,,,,
CC(C)[C@@H](CO)N[C@@H]1c2cc(C#N)ccc2OC(C)(C)[C@H]1O [19a],-1.73,54.05 ± 0.31,,,,

# Second part, the molecule after the results:
Exp. LogIC50 [1],IC50 [2] [µM],factor more active than corresponding unsubstituted analogs 6a and 6b,IC50 [3] [µM],"more active than diastereomer 14b (ratio of P-gp inhibitory potency (IC50), 14a versus 14b)","factor less active than diastereomeric 4aR,10bS analogue 12b (ratio of P-gp inhibitory potency (IC50), 12a versus 12b)",Structure (SMILES)
-1.46,28.93 ± 0.15,,,,,C[C@H]1C(=O)O[C@@H]2[C@H](c3cc(C#N)ccc3OC2(C)C)N1C [15b]
-1.68,47.8 ± 0.91,,,,,C[C@H]1C(=O)O[C@H]2[C@@H](c3cc(C#N)ccc3OC2(C)C)N1C [15a]
,16.7 ± 0.2,,16.6,,,CC(C)[C@H]1C(=O)O[C@@H]2[C@H](c3cc(C#N)ccc3OC2(C)C)N1C [16b]
,27.84 ± 0.02,,27.5,,,CC(C)[C@@H]1C(=O)O[C@@H]2[C@H](c3cc(C#N)ccc3OC2(C)C)N1C [18b]
,44 ± 0.03,,43.7,,,CC(C)[C@H]1CO[C@@H]2[C@@H](N1)c1cc(C#N)ccc1OC2(C)C [21b]
-1.18,15.3 ± 0.32,,,,,CC(C)[C@@H]1N[C@@H]2c3cc(C#N)ccc3OC(C)(C)[C@H]2OC1=O [13a]
,79.27 ± 0.05,,77.6,,,CC(C)[C@@H]1C(=O)O[C@H]2[C@@H](c3cc(C#N)ccc3OC2(C)C)N1C [18a]
-1.77,59.3 ± 0.6,,,,,CC(C)[C@@H]1N[C@H]2c3cc(C#N)ccc3OC(C)(C)[C@@H]2OC1=O [13b]
,48.8 ± 0.09,,49,,,"CC(C)[C@H]1CO[C@H]2[C@H](N1)c1cc(C#N)ccc1OC2(C)C [21a, (2S,4aS,10bR)-2-isopropyl-5,5-dimethyl-1,4a,5,10b-tetrahydro-3H [1]benzopyrano[3,4-b][1,4]oxazine-9-carbonitril]"
-1.88,76.89 ± 0.06,,,,,C[C@@H]1N[C@H]2c3cc(C#N)ccc3OC(C)(C)[C@@H]2OC1=O [12b]
-0.42,2.68 ± 0.18,,,two orders of magnitude more active,,CC1(C)Oc2ccc(C#N)cc2[C@H]2N[C@@H](Cc3ccccc3)C(=O)O[C@@H]21 [14a]
,47.51 ± 0.4,,47.9,,,CC(C)[C@H]1C(=O)O[C@H]2[C@@H](c3cc(C#N)ccc3OC2(C)C)N1C [16a]
,9.63 ± 0.08,,9.55,,,CC(C)[C@H]1N[C@H]2c3cc(C#N)ccc3OC(C)(C)[C@@H]2OC1=O [17b]
-3.09,1241.6 ± 0.04,,,,15,C[C@@H]1N[C@@H]2c3cc(C#N)ccc3OC(C)(C)[C@H]2OC1=O [12a]
